pEC50, pIC50: −log10 of the molar value. Where only a bound is given, the exact number is not on record here.

Experiment [1] has as its target S1P1 (membranes prepared from S1P1/CHO cells) (Homo sapiens (Human), UniProt P21453). The experiment is described as follows: Receptor [35S] GTPγS binding assay (S1P1 GTPγS). It is filed as biochemical. Conditions: phosphate examples; read-out: S1P1 GTPγS. In a few lines:
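Membranes from S1P1-expressing CHO cells (3 μg protein/well) incubated with compound (11-point, 3-fold dilution) and 0.2 nM final [35S]GTPγS, 45 min at room temperature. Assay buffer: 20 mM HEPES pH 7.5, 10 mM MgCl2, 150 mM NaCl, 10 μM GDP, 0.1% fatty-acid-free BSA, 10 μg/ml saponin. Filter-bound radioactivity counted by scintillation; EC50 derived.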

For the next experiment, the target named is human S1P1 (Homo sapiens (Human), UniProt P21453). Put plainly: S1P1 binding assay (33P-S1P radioligand competition, CHO cell membranes). Conditions: phosphate examples; read-out: S1P1 Binding. In a few lines: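 Radioligand is 33P-S1P, competing for membranes from human S1P1-expressing CHO cells. Membranes resuspended in 50 mM HEPES pH 7.5, 100 mM NaCl, 1 mM MgCl2, 2 mM EDTA.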
Chain of human S1P1 (P21453 whole entry): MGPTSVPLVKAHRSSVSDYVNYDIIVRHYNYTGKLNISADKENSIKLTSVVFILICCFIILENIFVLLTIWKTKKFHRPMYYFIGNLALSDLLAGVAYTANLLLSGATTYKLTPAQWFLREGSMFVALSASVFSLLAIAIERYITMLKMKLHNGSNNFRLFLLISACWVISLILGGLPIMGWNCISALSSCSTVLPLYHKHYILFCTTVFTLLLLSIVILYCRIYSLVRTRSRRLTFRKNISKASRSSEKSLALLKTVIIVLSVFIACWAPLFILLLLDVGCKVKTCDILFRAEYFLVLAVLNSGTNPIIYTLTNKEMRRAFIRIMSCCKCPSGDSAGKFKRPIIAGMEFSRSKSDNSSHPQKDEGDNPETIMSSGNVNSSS

Another experiment has as its target hS1P1/CHO cells (Homo sapiens (Human), UniProt P21453). Put plainly: hS1P1 ERK phosphorylation (S1P1 pERK). The class given is cell-based. Conditions: phosphate examples. The method in brief: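 CHO cells expressing human S1P1, serum-starved 2 h, exposed to compound in HBSS/20 mM HEPES for 7 min at 37° C. Lysates assayed for phospho-ERK by SureFire kit; response given as % activation relative to 10 μM S1P.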

Experiment [2] deals with S1P3 (membranes prepared from EDG3-Gal5-bla HEK293T cells) (Homo sapiens (Human), UniProt Q99500). The experiment is described as follows: Receptor [35S] GTPγS binding assay (S1P3 GTPγS). It is filed as biochemical. Conditions: phosphate examples; read-out: S1P3 GTPγS. In a few lines: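 Membranes (3 μg protein/well) from S1P1/CHO cells or EDG3-Gal5-bla HEK293T cells (S1P3) were incubated 45 min at room temperature with 0.2 nM final [35S]GTPγS in HEPES pH 7.5 buffer with 10 μM GDP, MgCl2 and saponin. Bound label counted after filtration; EC50 from 11-point, 3-fold dilutions.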
Chain of S1P3 (membranes prepared from EDG3-Gal5-bla HEK293T cells) (Q99500 whole entry): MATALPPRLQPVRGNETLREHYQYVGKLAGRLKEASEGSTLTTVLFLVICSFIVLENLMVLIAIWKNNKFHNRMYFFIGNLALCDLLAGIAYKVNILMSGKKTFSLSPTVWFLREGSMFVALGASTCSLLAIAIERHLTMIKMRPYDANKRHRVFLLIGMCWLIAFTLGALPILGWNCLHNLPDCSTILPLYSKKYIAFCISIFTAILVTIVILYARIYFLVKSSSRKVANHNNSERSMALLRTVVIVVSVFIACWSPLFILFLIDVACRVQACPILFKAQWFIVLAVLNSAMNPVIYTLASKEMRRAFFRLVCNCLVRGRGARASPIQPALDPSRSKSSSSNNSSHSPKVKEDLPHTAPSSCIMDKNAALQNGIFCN

Chain of hS1P1/CHO cells (P21453 whole entry): as the sequence (P21453 whole entry) above
Chain of S1P1 (membranes prepared from S1P1/CHO cells) (P21453 whole entry): as above

Take `CCCCCSC[C@@H]1CCc2cc([C@H]3CC[C@](N)(COP(=O)(O)O)C3)ccc2C1` [compound 513]: the pEC50 in experiment [1] was 7.00 to 8.00; on hS1P1/CHO cells, > 8.00; in experiment [2], < 6.20. In addition, the pIC50 at human S1P1 was > 8.00.
Consider `Cc1cccc(C)c1SC[C@@H]1CCc2cc([C@H]3CC[C@](N)(COP(=O)(O)O)C3)ccc2C1` [compound 523], for which the pEC50 in experiment [1] is 6.00 to 7.00; at hS1P1/CHO cells, 7.00 to 8.00; in experiment [2], < 6.20. For the same compound, at human S1P1, the pIC50 was 7.00 to 8.00.
Turning to `CC(C)(C)CCOC[C@@H]1CCc2cc([C@H]3CC[C@](N)(COP(=O)(O)O)C3)ccc2C1` [compound 464], the pEC50 in experiment [1] was > 8.00; on hS1P1/CHO cells, 7.00 to 8.00; in experiment [2] it was < 6.20. Besides, at human S1P1, the pIC50 was > 8.00.
As for `CCCCO[C@H]1CCc2cc([C@H]3CC[C@](N)(COP(=O)(O)O)C3)ccc2C1` [compound 436], the pEC50 in experiment [1] was 7.00 to 8.00; at hS1P1/CHO cells, > 8.00; in experiment [2], < 6.20. For the same compound, at human S1P1, the pIC50 was > 8.00.
`CC(C)CSC[C@@H]1CCc2cc([C@H]3CC[C@](N)(COP(=O)(O)O)C3)ccc2C1` [compound 504]: the pEC50 in experiment [1] is 7.00 to 8.00; on hS1P1/CHO cells, > 8.00; in experiment [2], < 6.20. For the same compound, the pIC50 at human S1P1 is > 8.00.
On to `CCCSCC[C@H]1CCc2cc([C@H]3CC[C@](N)(COP(=O)(O)O)C3)ccc2C1` [compound 534], for which the pEC50 in experiment [1] was > 8.00; at hS1P1/CHO cells, 7.00 to 8.00; in experiment [2], < 6.20. Further, at human S1P1, the pIC50 was > 8.00.
Take `CC(C)OCCC[C@H]1CCc2cc([C@@H]3CC[C@@](N)(COP(=O)(O)O)C3)ccc2C1` [compound 600]: the figures for the pEC50 (in experiment [1]; on hS1P1/CHO cells; in experiment [2]) were > 8.00, > 8.00 and < 6.20, respectively. Moreover, the pIC50 at human S1P1 was 7.00 to 8.00.
Turning to `CC(C)CCSC[C@H]1CCc2cc([C@H]3CC[C@](N)(COP(=O)(O)O)C3)ccc2C1` [compound 511], the pEC50 was 7.00 to 8.00 in experiment [1], > 8.00 on hS1P1/CHO cells and < 6.20 in experiment [2]. Besides, the pIC50 on human S1P1 is > 8.00.
Take `N[C@]1(COP(=O)(O)O)CC[C@@H](c2ccc3c(c2)CC[C@@H](CSc2ccccc2)C3)C1` [compound 508]: the pEC50 is 6.00 to 7.00 in experiment [1], 7.00 to 8.00 on hS1P1/CHO cells and < 6.20 in experiment [2]. On human S1P1, the pIC50 was 7.00 to 8.00.
On to `CCCCCOC[C@H]1CCc2cc([C@H]3CC[C@](N)(COP(=O)(O)O)C3)ccc2C1` [compound 448], for which the pEC50 in experiment [1] is > 8.00; on hS1P1/CHO cells it was > 8.00; in experiment [2], < 6.20. Moreover, the pIC50 at human S1P1 is > 8.00.
As to `CCCCCCC[C@H]1Cc2ccc([C@H]3CC[C@](N)(COP(=O)(O)O)C3)cc2CO1` [compound 428], the pEC50 in experiment [1] was > 8.00; on hS1P1/CHO cells, 7.00 to 8.00; in experiment [2], < 6.20. At human S1P1, the pIC50 is > 8.00.
For `CCCCCCC1Cc2ccc([C@H]3CC[C@](N)(COP(=O)(O)O)C3)cc2CO1` (stereo partly drawn) [compound 421], the pEC50 in experiment [1] was > 8.00; at hS1P1/CHO cells, > 8.00; in experiment [2], < 6.20. For the same compound, the pIC50 at human S1P1 was > 8.00.
In the case of `CCC/C=C\CO[C@H]1CCc2cc([C@H]3CC[C@](N)(COP(=O)(O)O)C3)ccc2C1` [compound 437], the values for the pEC50 (in experiment [1]; on hS1P1/CHO cells; in experiment [2]) were > 8.00, > 8.00 and < 6.20, respectively. Moreover, the pIC50 on human S1P1 was > 8.00.
Consider `COc1ccc(OC[C@@H]2CCc3cc([C@H]4CC[C@](N)(COP(=O)(O)O)C4)ccc3C2)cc1OC` [compound 491], for which the pEC50 is > 8.00 in experiment [1], 7.00 to 8.00 at hS1P1/CHO cells and < 6.20 in experiment [2]. Also, the pIC50 at human S1P1 is > 8.00.
For the compound `CCCCCCCOC1CCc2cc([C@H]3CC[C@](N)(COP(=O)(O)O)C3)ccc2C1` (stereo partly drawn) [compound 432], the pEC50 in experiment [1] is > 8.00; at hS1P1/CHO cells it was 7.00 to 8.00; in experiment [2], < 7.00. Besides, the pIC50 at human S1P1 is > 8.00.

The record behind these values is patent US9522888B2, “Substituted bicyclic compounds” (BRISTOL-MYERS SQUIBB COMPANY, priority 2014, dated 2016).
